In one assay the test system is NCI-H1734. The assay is described as follows: relative viability (nuclei count vs DMSO), 5 days (fraction); higher = more cells survive. Particulars: first compound 0.4 µM. The procedure, abridged:
(§1)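 Each reported value is a median over duplicate plates. It expresses relative viability: treated-well nuclei count divided by vehicle-well nuclei count. Lung cancer cell lines in 1536-well plates were dosed by pin tool a day after seeding, alone with one drug or with a fixed anchor-drug dose plus five library-drug doses (not always all listed) in √10 steps, and nuclei were counted after 5 days.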
With `COc1cc(N2CCC(C(N)=O)CC2)ccc1Nc1nc(N)c(Cl)c(Nc2ccccc2S(=O)(=O)C(C)C)n1` [HG-5-88-01] + N=C(N)NC(=N)NCCc1ccccc1 [Phenformin] (partner 250 µM), the relative viability was 0.333.
On the same count and under the same terms, with `Clc1ccc(Nc2nnc(Cc3ccncc3)c3ccccc23)cc1` [Vatalanib] + COc1cccc2cc(-c3nc([C@H]4CC[C@H](C(=O)O)CC4)n4ncnc(N)c34)[nH]c12 [OSI-027] (partner 0.5 µM) the figure was 0.697; with `Clc1ccc(Nc2nnc(Cc3ccncc3)c3ccccc23)cc1` [Vatalanib] + N=C(N)NC(=N)NCCc1ccccc1 [Phenformin] (partner 250 µM), 0.463.
`Clc1ccc(Nc2nnc(Cc3ccncc3)c3ccccc23)cc1` [Vatalanib] + Nc1nc2[nH]cc(CCc3ccc(C(=O)N[C@@H](CCC(=O)O)C(=O)O)cc3)c2c(=O)[nH]1 [Pemetrexed] (partner 0.2 µM): the relative viability worked out at 0.414.

The same assay, now with this note: first compound 1.265 µM.
As to `COc1cc(N2CCC(C(N)=O)CC2)ccc1Nc1nc(N)c(Cl)c(Nc2ccccc2S(=O)(=O)C(C)C)n1` [HG-5-88-01] + N=C(N)NC(=N)NCCc1ccccc1 [Phenformin] (partner 250 µM), the relative viability worked out at 0.371.
Compound `Clc1ccc(Nc2nnc(Cc3ccncc3)c3ccccc23)cc1` [Vatalanib] + COc1cccc2cc(-c3nc([C@H]4CC[C@H](C(=O)O)CC4)n4ncnc(N)c34)[nH]c12 [OSI-027] (partner 0.5 µM) gave a relative viability of 0.563.
Same read-out and setting: with `Clc1ccc(Nc2nnc(Cc3ccncc3)c3ccccc23)cc1` [Vatalanib] + N=C(N)NC(=N)NCCc1ccccc1 [Phenformin] (partner 250 µM) the figure was 0.322.
On the same count and under the same terms, with `Clc1ccc(Nc2nnc(Cc3ccncc3)c3ccccc23)cc1` [Vatalanib] + Nc1nc2[nH]cc(CCc3ccc(C(=O)N[C@@H](CCC(=O)O)C(=O)O)cc3)c2c(=O)[nH]1 [Pemetrexed] (partner 0.2 µM) the figure was 0.427.

Staying with this assay, now noted: first compound 4 µM.
As to `COc1cc(N2CCC(C(N)=O)CC2)ccc1Nc1nc(N)c(Cl)c(Nc2ccccc2S(=O)(=O)C(C)C)n1` [HG-5-88-01] + N=C(N)NC(=N)NCCc1ccccc1 [Phenformin] (partner 250 µM), the relative viability turned out to be 0.355.
Still for that read-out and setting: the result for `Clc1ccc(Nc2nnc(Cc3ccncc3)c3ccccc23)cc1` [Vatalanib] + COc1cccc2cc(-c3nc([C@H]4CC[C@H](C(=O)O)CC4)n4ncnc(N)c34)[nH]c12 [OSI-027] (partner 0.5 µM) reads 0.589; that for `Clc1ccc(Nc2nnc(Cc3ccncc3)c3ccccc23)cc1` [Vatalanib] + N=C(N)NC(=N)NCCc1ccccc1 [Phenformin] (partner 250 µM), 0.346; that for `Clc1ccc(Nc2nnc(Cc3ccncc3)c3ccccc23)cc1` [Vatalanib] + Nc1nc2[nH]cc(CCc3ccc(C(=O)N[C@@H](CCC(=O)O)C(=O)O)cc3)c2c(=O)[nH]1 [Pemetrexed] (partner 0.2 µM), 0.379.

A further assay relates to NCI-H1944. The description is as above. Conditions: first compound 0.04 µM. The procedure, abridged:
as §1
`COc1cc(N2CCC(C(N)=O)CC2)ccc1Nc1nc(N)c(Cl)c(Nc2ccccc2S(=O)(=O)C(C)C)n1` [HG-5-88-01] + N=C(N)NC(=N)NCCc1ccccc1 [Phenformin] (partner 250 µM): the relative viability was determined as 0.213.
On the same count and under the same terms, with `Clc1ccc(Nc2nnc(Cc3ccncc3)c3ccccc23)cc1` [Vatalanib] + COc1cccc2cc(-c3nc([C@H]4CC[C@H](C(=O)O)CC4)n4ncnc(N)c34)[nH]c12 [OSI-027] (partner 0.5 µM) the figure was 0.42.
In turn, `Clc1ccc(Nc2nnc(Cc3ccncc3)c3ccccc23)cc1` [Vatalanib] + N=C(N)NC(=N)NCCc1ccccc1 [Phenformin] (partner 250 µM) registered a relative viability of 0.221.
Same read-out and setting: the result for `Clc1ccc(Nc2nnc(Cc3ccncc3)c3ccccc23)cc1` [Vatalanib] + Nc1nc2[nH]cc(CCc3ccc(C(=O)N[C@@H](CCC(=O)O)C(=O)O)cc3)c2c(=O)[nH]1 [Pemetrexed] (partner 0.2 µM) reads 0.544.

The same assay, now with this note: first compound 0.1265 µM.
Consider `COc1cc(N2CCC(C(N)=O)CC2)ccc1Nc1nc(N)c(Cl)c(Nc2ccccc2S(=O)(=O)C(C)C)n1` [HG-5-88-01] + N=C(N)NC(=N)NCCc1ccccc1 [Phenformin] (partner 250 µM), for which the relative viability was determined as 0.241.
Same read-out and setting: the result for `Clc1ccc(Nc2nnc(Cc3ccncc3)c3ccccc23)cc1` [Vatalanib] + COc1cccc2cc(-c3nc([C@H]4CC[C@H](C(=O)O)CC4)n4ncnc(N)c34)[nH]c12 [OSI-027] (partner 0.5 µM) reads 0.421; that for `Clc1ccc(Nc2nnc(Cc3ccncc3)c3ccccc23)cc1` [Vatalanib] + N=C(N)NC(=N)NCCc1ccccc1 [Phenformin] (partner 250 µM), 0.198; that for `Clc1ccc(Nc2nnc(Cc3ccncc3)c3ccccc23)cc1` [Vatalanib] + Nc1nc2[nH]cc(CCc3ccc(C(=O)N[C@@H](CCC(=O)O)C(=O)O)cc3)c2c(=O)[nH]1 [Pemetrexed] (partner 0.2 µM), 0.669.

Staying with this assay, now noted: first compound 0.4 µM.
Compound `COc1cc(N2CCC(C(N)=O)CC2)ccc1Nc1nc(N)c(Cl)c(Nc2ccccc2S(=O)(=O)C(C)C)n1` [HG-5-88-01] + N=C(N)NC(=N)NCCc1ccccc1 [Phenformin] (partner 250 µM) had a relative viability of 0.262.
With `Clc1ccc(Nc2nnc(Cc3ccncc3)c3ccccc23)cc1` [Vatalanib] + COc1cccc2cc(-c3nc([C@H]4CC[C@H](C(=O)O)CC4)n4ncnc(N)c34)[nH]c12 [OSI-027] (partner 0.5 µM), the relative viability is 0.413.
The same measure, in the same setting: the result for `Clc1ccc(Nc2nnc(Cc3ccncc3)c3ccccc23)cc1` [Vatalanib] + N=C(N)NC(=N)NCCc1ccccc1 [Phenformin] (partner 250 µM) reads 0.212.
`Clc1ccc(Nc2nnc(Cc3ccncc3)c3ccccc23)cc1` [Vatalanib] + Nc1nc2[nH]cc(CCc3ccc(C(=O)N[C@@H](CCC(=O)O)C(=O)O)cc3)c2c(=O)[nH]1 [Pemetrexed] (partner 0.2 µM) returned a relative viability of 0.63.

Still in this assay, the particulars now being: first compound 1.265 µM.
Turning to `COc1cc(N2CCC(C(N)=O)CC2)ccc1Nc1nc(N)c(Cl)c(Nc2ccccc2S(=O)(=O)C(C)C)n1` [HG-5-88-01] + N=C(N)NC(=N)NCCc1ccccc1 [Phenformin] (partner 250 µM), the relative viability came out at 0.209.
Regarding `Clc1ccc(Nc2nnc(Cc3ccncc3)c3ccccc23)cc1` [Vatalanib] + COc1cccc2cc(-c3nc([C@H]4CC[C@H](C(=O)O)CC4)n4ncnc(N)c34)[nH]c12 [OSI-027] (partner 0.5 µM), the relative viability is 0.411.
Same read-out and setting: the result for `Clc1ccc(Nc2nnc(Cc3ccncc3)c3ccccc23)cc1` [Vatalanib] + N=C(N)NC(=N)NCCc1ccccc1 [Phenformin] (partner 250 µM) reads 0.188; that for `Clc1ccc(Nc2nnc(Cc3ccncc3)c3ccccc23)cc1` [Vatalanib] + Nc1nc2[nH]cc(CCc3ccc(C(=O)N[C@@H](CCC(=O)O)C(=O)O)cc3)c2c(=O)[nH]1 [Pemetrexed] (partner 0.2 µM), 0.583.

Still in this assay, the particulars now being: first compound 4 µM.
`COc1cc(N2CCC(C(N)=O)CC2)ccc1Nc1nc(N)c(Cl)c(Nc2ccccc2S(=O)(=O)C(C)C)n1` [HG-5-88-01] + N=C(N)NC(=N)NCCc1ccccc1 [Phenformin] (partner 250 µM) registered a relative viability of 0.22.

(Values after the supplement of paper PMC10307832.)
